Holding throughout (assay): inhibition of tumour cell growth, NCI panel, 48 h
Assay [1] deals with MDA-MB-435.
Assay [2] deals with 786-0 renal.
The test system of assay [3] is MOLT-4 leukemia.
The subject of assay [4] is DU-145 prostate.
For assay [5], the system named is OVCAR-4 ovarian.
The subject of assay [6] is RPMI-8226 leukemia.
Assay [7] relates to HOP-62 NSCLC.
For assay [8], the system named is UO-31 renal.
The test system of assay [9] is NCI-H522 lung.
In assay [10] the test system is SN12C renal.

Several values for one entry are separate records, joined by “and”; a condition that tells them apart may be missing. Identical values can stand only once.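 In this assay, cells in 96-well plates receive the compound at five concentrations for 48 hours. Endpoints are linearly interpolated between the surrounding concentrations. GI50 marks 50% less growth. TGI marks complete inhibition of growth.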

As to `Cc1cccc2cc3ccc4ccccc4c3cc12`, the TGI in [1] is over 100 µM; in assay [2], over 100 µM; in assay [3] it was 70.9 µM; in [4], over 100 µM; in assay [5] it was over 100 µM; in [6], over 100 µM. Besides, the TGI is over 100 µM in [7], over 100 µM in [8], 95.5 µM in [9] and over 100 µM in assay [10].

With `CCN1CCN(c2nc(C)cc(N(CCCNc3ccnc4cc(Cl)ccc34)Cc3ccco3)n2)CC1`, the GI50 in [1] was 1.7 µM; in assay [2], 1.85 µM; in assay [3], 3.14 µM; in assay [4], 5.89 µM; in assay [5] it was 3.99 µM; in assay [6], 2.31 µM. The GI50 in [7] was 3.22 µM; in [8], 1.83 µM; in assay [9] it was 3.12 µM; in assay [10], 5.55 µM. Further, the TGI in assay [1] was determined as 3.24 µM; in [2], 4.15 µM; in [3], 16.8 µM; in assay [4], 19.7 µM; in [5], 20.7 µM; in [6] it was 5.77 µM. In addition, the TGI in [7] came out at 14.1 µM; in assay [8], 4.3 µM; in [9], 12 µM; in [10], 19.5 µM.

`COc1ccc(CC(C#N)c2cc(OC)c(OC)c(OC)c2)cc1` (stereo not drawn): the TGI in assay [1] is over 100 µM; in assay [2], over 100 µM; in [3], over 100 µM; in [4], 1.82 µM; in assay [5] it was over 100 µM; in assay [6], 46.6 µM. Further, the TGI is over 100 µM in assay [7], over 100 µM in [8], 0.135 µM in assay [9] and over 79.9 µM in [10].

In the case of `COC(=O)c1cccc2c1Oc1ccccc1S2`, the TGI in assay [1] is over 100 µM; in [2], over 100 µM; in [3], 70 µM; in [4], over 100 µM; in [5] it was over 100 µM; in assay [6], over 100 µM. For the same molecule, the TGI in assay [7], in assay [8], in assay [9] and in assay [10] was over 100 µM in each case.

For the molecule `C[C@@H]1CCC2[C@@H](C)[C@H](OC(=O)CCC(=O)NCCNC(=O)Cc3cc(=O)oc4cc(N(C)C)ccc34)O[C@@H]3O[C@]4(C)CC[C@@H]1C23OO4` (stereo partly drawn), the GI50 was 0.472 µM in [1]; 4.24 µM in [2]; 1.75 µM in assay [3]; 10.3 µM in [4]; 11.4 µM in assay [5]; 0.378 µM in assay [6]. Moreover, the GI50 is 12.5 µM in assay [7], 0.897 µM in [8], 0.731 µM in assay [9] and 4.04 µM in assay [10]. For the same molecule, the TGI in assay [1] is 16.8 µM; in assay [2], 65.2 µM; in assay [3] it was 37.9 µM; in assay [4], 24 µM; in assay [5], over 100 µM; in assay [6] it was 32.9 µM. Further, the TGI is over 62 µM in [7], 4.15 µM in assay [8], 11.1 µM in assay [9] and over 100 µM in assay [10].

`Clc1ccc2c(NCCN3CCN(c4ccnc(N5CCCC5)n4)CC3)ccnc2c1`: the GI50 in [1] is 1.96 µM; in [2], 3.32 µM; in assay [3] it was 3.58 µM; in assay [4], 5.71 µM; in assay [5], 3.87 µM; in assay [6], 2.48 µM. The GI50 in assay [7] is 3.34 µM; in assay [8], 1.82 µM; in [9] it was 3.27 µM; in assay [10], 4.86 µM. In addition, the TGI was 4.54 µM in assay [1]; 11.1 µM in [2]; 38.2 µM in assay [3]; 20.3 µM in assay [4]; 28.2 µM in [5]; 7.08 µM in assay [6]. In addition, the TGI in assay [7] was 16.2 µM; in assay [8] it was 4.47 µM; in [9] it was 11.1 µM; in assay [10], 19.1 µM.

As to `Cc1[nH]ccc2cc3nc4ccccc4c3cc12`, the GI50 in assay [1] is 2.89 µM; in [2], 3.33 µM; in [3], 0.723 µM; in assay [4], 2.18 µM; in assay [5], 2.65 µM; in [6], 1.53 µM. Also, the GI50 in [7] is 2.79 µM; in [8], 2.02 µM; in [9] it was 2.22 µM; in [10], 2.55 µM. Further, the TGI in [1] was 12.7 µM; in assay [2], 13.8 µM; in assay [3] it was 3.13 µM; in [4] it was 5.83 µM; in assay [5], 10.7 µM; in assay [6], 3.87 µM. The TGI in [7] is 12.8 µM; in assay [8], 8.47 µM; in assay [9], 9.72 µM; in assay [10] it was 12.5 µM.

As to `c1cc(C2N3CCCN2CC3)ccn1` (stereo not drawn), the TGI is 89.2 µM in [1]; over 100 µM in assay [2]; over 100 µM in [3]; over 100 µM in assay [4]; over 100 µM in assay [5]; 71 µM in [6]. Besides, the TGI in assay [7] is over 100 µM; in assay [8], over 100 µM; in assay [9] it was 18.4 µM; in [10] it was over 100 µM.

As to `c1ccc([P+](CCC[P+](c2ccccc2)(c2ccccc2)c2ccccc2)(c2ccccc2)c2ccccc2)cc1`, the GI50 in [1] is 4.84 µM; in assay [3] it was 35.9 µM; in assay [4], 19.9 µM; in assay [5] it was 5.51 µM; in assay [6] it was 1.27 µM; in [7], 18 µM. For the same molecule, the GI50 in [9] was 3.53 µM; in assay [10], 19.6 µM. The TGI in assay [1] is over 100 µM; in assay [2], over 100 µM; in [3], over 100 µM; in [4], over 100 µM; in [5], over 100 µM; in assay [6] it was > 100 µM and 10.1 µM. In addition, the TGI was over 100 µM in assay [7]; over 100 µM in assay [8]; > 100 µM and 24.8 µM in [9]; over 100 µM in [10].

(Values after PubChem BioAssay (NCI).)
